From patent US10065990B2, “Cyclic peptide compound, and preparation method, pharmaceutical composition and use thereof” (HANGZHOU GUANYU BIO-MEDICAL CO., LTD, priority 2013, dated 2018) come the findings set out here.

Where two headings read alike, the source gives them in different places.

The target in one test is HDAC2 (Homo sapiens, UniProt Q92769). In words: HDAC biochemical activity measurement (fluorescent substrate deacetylation). The note with it: 37° C. 30 minutes.
Test [1] concerns SGC-7901 (human gastric cancer cells). In words: MTT cancer cell growth inhibition. Format: cell-based. As to conditions: Homo sapiens, SGC-7901, 72 h, MTT, 72 hours incubation, SGC-7901 cells; read-out: GI50 SGC-7901. The gist of the method:
(§1)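 GI50 values come from viability measured by MTT reduction at 570 nm. Plated overnight at 1500 cells per well, cultures received drug in three parallel wells across 10^−5–10^−10 M final and were incubated 72 h at 37° C. under 5% CO2 before MTT for 4 h.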

Test [2] deals with A549 (human lung cancer cells). Put plainly: MTT cancer cell growth inhibition. It counts as cell-based. The note with it: Homo sapiens, A549, 72 h, MTT. In outline: as §1
Test [3] concerns lncap (prostate cancer cells). Put plainly: MTT cancer cell growth inhibition. Format: cell-based. As to conditions: Homo sapiens, LNCaP, 72 h, MTT. In outline: as §1
The subject of test [4] is MDA-MB-231 (breast cancer cells). Put plainly: MTT cancer cell growth inhibition. The note with it: Homo sapiens, MDA-MB-231, 72 h, read-out: GI50 MDA-MB-231, MTT, 72 hours incubation, MDA-MB-231 cells. Format: cell-based. The gist of the method: as §1
In test [5] the test system is MOLT-4 (human acute lymphoblastic leukemia cells). In words: MTT cancer cell growth inhibition. Format: cell-based. As to conditions: Homo sapiens, MOLT-4, 72 h, MTT. In outline:
as §1

Test [6] relates to PANC-1 (Pac-1, human pancreatic cancer cells). Put plainly: MTT cancer cell growth inhibition. It counts as cell-based. As to conditions: Homo sapiens, PANC-1, 72 h, MTT. The gist of the method:
as §1

Test [7] relates to KBM5-T315I (human chronic myelogenous leukemia). Put plainly: MTT cancer cell growth inhibition. It counts as cell-based. As to conditions: Homo sapiens, 72 h, MTT, 72 hours incubation, KBM5-T315I cells; read-out: GI50 KBM5-T315I. In outline: as §1
Test [8] deals with Huh-7 (human hepatoma cells). Put plainly: MTT cancer cell growth inhibition. Format: cell-based. The note with it: Homo sapiens, Huh-7, 72 h, MTT, 72 hours incubation, Huh-7 cells; read-out: GI50 Huh-7. In outline: as §1
Test [9] relates to MCF-7 (human breast cancer cells). Put plainly: MTT cancer cell growth inhibition. Format: cell-based. The note with it: Homo sapiens, MCF7, 72 h. The gist of the method: as §1
Another test concerns the target T1, HDAC11 (Homo sapiens, UniProt Q96DB2).
T1 sequence (Q96DB2 1-347): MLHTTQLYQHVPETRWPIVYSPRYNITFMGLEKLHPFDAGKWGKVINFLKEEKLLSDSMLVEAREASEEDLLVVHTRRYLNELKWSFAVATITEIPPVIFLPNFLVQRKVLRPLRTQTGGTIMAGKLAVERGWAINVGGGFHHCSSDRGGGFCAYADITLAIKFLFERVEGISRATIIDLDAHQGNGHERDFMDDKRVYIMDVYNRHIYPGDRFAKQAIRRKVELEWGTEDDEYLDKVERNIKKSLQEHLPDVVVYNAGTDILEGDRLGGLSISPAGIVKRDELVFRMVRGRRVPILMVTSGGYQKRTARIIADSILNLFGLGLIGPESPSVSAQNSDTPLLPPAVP
Put plainly: HDAC biochemical activity measurement (fluorescent substrate deacetylation).

Another test addresses HDAC1 (Homo sapiens, UniProt Q13547). The description is as above.
The next test has as its target T2, HDAC7 (Homo sapiens, UniProt Q8WUI4).
T2 sequence (Q8WUI4 1-952): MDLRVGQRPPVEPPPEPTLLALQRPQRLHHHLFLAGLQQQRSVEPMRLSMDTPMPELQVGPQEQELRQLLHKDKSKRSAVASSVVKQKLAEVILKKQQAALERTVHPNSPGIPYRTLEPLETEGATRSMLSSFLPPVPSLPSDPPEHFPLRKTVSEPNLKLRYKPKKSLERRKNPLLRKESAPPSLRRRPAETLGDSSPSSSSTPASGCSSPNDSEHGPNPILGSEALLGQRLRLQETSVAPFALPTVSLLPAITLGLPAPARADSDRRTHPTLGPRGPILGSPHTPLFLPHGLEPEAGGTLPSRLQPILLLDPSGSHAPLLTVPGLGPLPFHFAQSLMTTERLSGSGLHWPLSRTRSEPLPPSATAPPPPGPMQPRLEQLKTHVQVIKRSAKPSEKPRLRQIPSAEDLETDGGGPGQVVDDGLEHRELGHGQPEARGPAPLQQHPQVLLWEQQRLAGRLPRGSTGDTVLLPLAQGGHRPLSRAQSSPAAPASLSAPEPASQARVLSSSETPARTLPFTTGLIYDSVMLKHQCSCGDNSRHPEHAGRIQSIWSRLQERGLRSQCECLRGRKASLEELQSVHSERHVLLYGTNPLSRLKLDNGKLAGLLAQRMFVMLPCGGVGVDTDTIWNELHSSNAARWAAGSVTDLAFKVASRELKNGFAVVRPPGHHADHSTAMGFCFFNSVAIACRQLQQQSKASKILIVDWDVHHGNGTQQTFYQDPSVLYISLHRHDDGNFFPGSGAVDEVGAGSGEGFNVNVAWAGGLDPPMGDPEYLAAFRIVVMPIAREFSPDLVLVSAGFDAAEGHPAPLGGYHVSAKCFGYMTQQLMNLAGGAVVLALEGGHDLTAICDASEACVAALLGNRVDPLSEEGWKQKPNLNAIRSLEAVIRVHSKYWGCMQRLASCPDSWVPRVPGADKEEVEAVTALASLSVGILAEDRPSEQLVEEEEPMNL
The description is as above. As to conditions: HDAC7; 37° C. 30 minutes.

The mark [10] stands for this setting: A549 cells, 72 hours incubation, read-out: GI50 A54.
The mark [11] stands for this setting: 72 hours, present invention, read-out: GI50 A549, a.
[12] abbreviates: 72 hours, present invention, read-out: GI50 lncap, a.
[13] abbreviates: lncap cells, 72 hours incubation, read-out: GI50 lnca.
Setting [14] is: MOLT-4 cells, 72 hours incubation, read-out: GI50 Mol.
[15] abbreviates: 72 hours, present invention, read-out: GI50 Molt-4, a.
[16] abbreviates: 72 hours, present invention, read-out: GI50 PANC-1, a.
Setting [17] is: PANC-1 cells, 72 hours incubation, read-out: GI50 PAN.
Where [18] appears, read: 72 hours, present invention, read-out: GI50 MCF7, a.
Where [19] appears, read: HDAC1, 37° C. 30 minutes, read-out: IC50 HDAC1.
Where [20] appears, read: Table 2, read-out: IC50 HDAC1, a (compounds of the present invention).
Setting [21] is: MCF-7 cells, 72 hours incubation, read-out: GI50 MCF.
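Wherever IC50 HDAC1 is given: fluorogenic acetyl-lysine substrate (20 µM) deacetylated by HDAC1, then developer releases fluorophore read at 360 nm excitation and 460 nm emission, inhibitor incubated 30 min at 37 °C.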
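Wherever IC50 HDAC1, a (compounds of the present invention) is given: fluorogenic acetyl-lysine substrate (20 µM) deacetylated by HDAC1, then developer releases fluorophore read at 360 nm excitation and 460 nm emission, inhibitor incubated 30 min at 37 °C.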
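Wherever IC50 HDAC7 is given: fluorogenic deacetylation assay using acetyl-lysine substrate at 20 µM, enzyme and compound incubated 30 min at 37 °C, then developer added, fluorescence read at 360/460 nm.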

Chain of HDAC2 (Q92769 whole entry, species assumed): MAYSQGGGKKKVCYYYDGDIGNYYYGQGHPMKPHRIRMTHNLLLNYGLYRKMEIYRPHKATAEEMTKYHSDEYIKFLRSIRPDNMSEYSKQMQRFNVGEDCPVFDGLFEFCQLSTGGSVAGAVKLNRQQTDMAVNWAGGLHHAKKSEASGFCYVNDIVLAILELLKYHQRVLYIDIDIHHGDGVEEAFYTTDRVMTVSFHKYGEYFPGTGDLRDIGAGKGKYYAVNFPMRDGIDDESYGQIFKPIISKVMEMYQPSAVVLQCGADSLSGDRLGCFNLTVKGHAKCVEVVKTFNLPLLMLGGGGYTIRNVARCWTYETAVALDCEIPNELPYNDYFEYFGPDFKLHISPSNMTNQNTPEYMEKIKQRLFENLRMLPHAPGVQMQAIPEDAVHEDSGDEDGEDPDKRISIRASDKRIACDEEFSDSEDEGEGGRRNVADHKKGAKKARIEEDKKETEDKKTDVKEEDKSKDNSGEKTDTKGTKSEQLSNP
Chain of HDAC1 (Q13547 whole entry, species assumed): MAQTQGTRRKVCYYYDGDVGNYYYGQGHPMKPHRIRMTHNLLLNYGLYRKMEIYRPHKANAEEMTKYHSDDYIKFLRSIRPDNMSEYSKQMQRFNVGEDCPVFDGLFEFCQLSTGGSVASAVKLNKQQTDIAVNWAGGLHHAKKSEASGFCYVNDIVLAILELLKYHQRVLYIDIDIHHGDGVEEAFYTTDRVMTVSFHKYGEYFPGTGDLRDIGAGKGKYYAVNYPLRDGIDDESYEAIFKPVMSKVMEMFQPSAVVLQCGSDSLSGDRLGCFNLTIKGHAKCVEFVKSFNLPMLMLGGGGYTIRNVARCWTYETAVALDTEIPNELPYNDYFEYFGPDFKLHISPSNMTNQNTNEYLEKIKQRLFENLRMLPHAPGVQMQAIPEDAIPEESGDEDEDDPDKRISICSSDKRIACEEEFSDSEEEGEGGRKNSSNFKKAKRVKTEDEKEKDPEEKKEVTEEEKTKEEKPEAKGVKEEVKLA

With `C/C=C1\NC(=O)c2cccc(n2)CNC(=O)C[C@@H](/C=C/CCSC(=O)CCCCCCC)OC(=O)[C@H](CCSC)NC1=O` [Compound 240], the IC50 was 21 nM against HDAC2, 56 nM against HDAC11, 45 nM on HDAC1 (setting [19]) and less than 50 nM on HDAC1 (setting [20]). In addition, the 50% growth inhibitory concentration (GI50) in [1] was determined as 24 nM; in test [2] (setting [10]) it was 10 nM; in [2] (setting [11]), 36 nM; in [3] (setting [12]), 70 nM; in test [3] (setting [13]), 10 nM; in [4] it was 37 nM. For the same compound, the GI50 in test [5] (setting [14]) turned out to be 30 nM; in test [5] (setting [15]), 18 nM; in test [6] (setting [16]), 190 nM; in [6] (setting [17]), 110 nM; in [7] it was 83 nM; in [8], 61 nM. For the same compound, in test [9] (setting [18]), the GI50 came out at 1 nM. Further, the “IC50 HDAC7” value on HDAC7 is recorded as “no activity”.
Consider `C/C=C1\NC(=O)c2ccc(SC)c(n2)CNC(=O)C[C@@H](/C=C/CCSC(C)=O)OC(=O)[C@H](CC)NC1=O` [Compound 179], for which the figures for the IC50 against HDAC2, on HDAC11 and on HDAC1 (setting [19]) were 51 nM, 92 nM and 73 nM, respectively. Also, the GI50 was determined as 19 nM in test [1]; 60 nM in [2] (setting [10]); 100 nM in [3] (setting [13]); 51 nM in test [4]; 80 nM in test [5] (setting [14]); 60 nM in test [6] (setting [17]). Besides, the GI50 stood at 28 nM in test [7], 15 nM in [8] and 60 nM in test [9] (setting [21]). Moreover, on HDAC7, the “IC50 HDAC7” value is reported as “no activity”.
For `C/C=C1\NC(=O)c2nc(ccc2F)CNC(=O)C[C@@H](/C=C/CCSC(=O)CC)OC(=O)[C@H](C(C)C)NC1=O` [Example 45], the IC50 was 32 nM on HDAC2, 92 nM against HDAC11 and 64 nM at HDAC1 (setting [19]). Further, the GI50 came to 43 nM in [1]; 40 nM in test [2] (72 hours incubation, read-out: GI50 A54); 30 nM in [3] (72 hours incubation, read-out: GI50 lnca); 37 nM in [4]; 30 nM in [5] (72 hours incubation, read-out: GI50 Mol); 60 nM in test [6] (72 hours incubation, read-out: GI50 PAN). Moreover, the GI50 in test [7] was 59 nM; in [8] it was 37 nM; in test [9] (72 hours incubation, read-out: GI50 MCF), 50 nM. In addition, at HDAC7, the “IC50 HDAC7” value was “no activity”.
Take `C/C=C1\NC(=O)c2cc(SC)cc(n2)CNC(=O)C[C@@H](/C=C/CCSC=O)OC(=O)[C@H](C(C)C)NC1=O` [Compound 169]: the IC50 at HDAC2 was found to be 52 nM; against HDAC11, 92 nM; on HDAC1 (setting [19]), 72 nM. The GI50 was found to be 62 nM in test [1]; 40 nM in test [2] (setting [10]); 50 nM in test [3] (setting [13]); 35 nM in [4]; 40 nM in test [5] (setting [14]); 40 nM in test [6] (setting [17]). The results for the GI50 in [7], in test [8] and in test [9] (setting [21]) were 47 nM, 61 nM and 70 nM, respectively. The “IC50 HDAC7” value against HDAC7 is recorded as “no activity”.
`C/C=C1\NC(=O)c2cccc(n2)CNC(=O)C[C@@H](/C=C/CCSC(=O)CCCCCCC)OC(=O)[C@H](c2ccc(O)cc2)NC1=O` [Compound 238]: the IC50 was 83 nM against HDAC2; 65 nM at HDAC11 (read-out: IC50 HDAC11, HDAC11, 37° C. 30 minutes); 44 nM on HDAC1 (setting [19]); less than 50 nM on HDAC1 (setting [20]). Besides, the GI50 in test [1] was determined as 56 nM; in test [2] (setting [10]) it was 10 nM; in test [2] (setting [11]) it was 16 nM; in [3] (setting [12]) it was 110 nM; in test [3] (setting [13]) it was 110 nM; in test [4], 46 nM. Besides, the 50% growth inhibitory concentration (GI50) in [5] (setting [15]) worked out at 8 nM; in [6] (setting [16]), 77 nM; in test [6] (setting [17]), 70 nM; in test [7] it was 66 nM; in test [8] it was 55 nM; in test [9] (setting [18]), 23 nM. In test [9] (setting [21]), the GI50 worked out at 20 nM. Also, the “IC50 HDAC7” value at HDAC7 is “no activity”.
In the case of `C/C=C1\NC(=O)c2nc(ccc2SCCC)CNC(=O)C[C@@H](/C=C/CCSC(=O)CCCCCCC)OC(=O)[C@H](CC)NC1=O` [Compound 174], the IC50 against HDAC2 is 32 nM; against HDAC11 it was 98 nM; at HDAC1 (setting [19]) it was 84 nM. The GI50 in [1] was determined as 26 nM; in test [2] (setting [10]), 50 nM; in test [3] (setting [13]), 30 nM; in test [4], 16 nM; in test [5] (setting [14]) it was 20 nM; in test [6] (setting [17]), 100 nM. Moreover, the concentration for 50% growth inhibition (GI50) in [7] was determined as 96 nM; in [8], 11 nM; in test [9] (setting [21]), 80 nM. Further, at HDAC7, the “IC50 HDAC7” value is listed as “no activity”.
Take `C/C=C1\NC(=O)c2cc(SC)cc(n2)CNC(=O)C[C@@H](/C=C/CCSC(C)=O)OC(=O)[C@H](CCCCN)NC1=O` [Compound 193]: the IC50 at HDAC2 came out at 25 nM; against HDAC11, 93 nM; at HDAC1 (setting [19]), 43 nM. In addition, the GI50 amounted to 73 nM in test [1]; 40 nM in test [2] (setting [10]); 80 nM in test [3] (setting [13]); 43 nM in [4]; 40 nM in test [5] (setting [14]); 80 nM in test [6] (setting [17]). The GI50 in test [7] is 41 nM; in test [8], 33 nM; in test [9] (setting [21]), 70 nM. Further, the “IC50 HDAC7” value against HDAC7 is reported as “no activity”.
